Measurements published in patent publication US6362207B1, “Methods of treating viral infections with benzimidazoles” (priority 1995, dated 2002).
Values joined by “and” are separate entries in the source; they are usually repeats but may differ in a detail not shown here. Identical values can stand only once.

Tests used:
influenza [1] = assay: In vivo model for influenza; design: species or system mice; conditions: mouse, in vivo
Experimental: The positive control was amantadine (75 mg/kg) with 100% of the mice surviving for 21 days. 2-(Methoxycarbonylamino)benzimidazole was not active in the same test.

HIV = assay: microbe, parasite or virus in culture; type: cell-based
MV522 = assay: Lung cancer model MV522 after Taxol, tumor weight; type: in vivo, mice
Experimental: (§1) The dose response effect of carbendazim in mice infected with various cancer types was studied in standard screening tests.
(§2) The results of these studies conducted to study the dosage response of carbendazim on various cancer types are summarized below. […] Efficacy of carbendazim has been shown in the following cancers:
At doses of 2000, 3000, 4000 and 5000 (mg/kg given twice weekly, p.o.) tumor growth was suppressed in a dose response and the tumor was shrunk in the 5000 mg/kg group. Day 1 is the start of the treatment with carbendazim.

Oral LD50 = conditions: mouse, in vivo, mice
herpes [2] = assay: In vivo herpes screening test; design: species or system mice; conditions: mouse, in vivo
Experimental: The positive control was acyclovir at 75 mg/kg dose; 60% of the mice survived with a mean death date of 17.2 days.

[3] = tested on: MCF7 (breast cancer) cells; assay: Apoptosis study (TdT assay) and cell growth; type: cell-based, human
Experimental: (§3) Summary of test results: The extent of apoptosis is measured in human tumor cell lines after treatment for 1, 2, 3 and 4 days with carbendazim. At each of these time points, the cells are harvested and assayed using the terminal deoxynucleotidyl transferase (TdT) assays. Both microscopy and flow cytometry were used for the TdT assay.
(§4) In MCF7, HT29, B16 and SK-MES cell lines, there was a concentration dependent effect on cell growth. […] After completion of the studies on the MCF7 and HT29 cell lines, it was evident that the 0.1 μg/ml concentration had little effect on either apoptosis or cell growth. Therefore subsequent assays were with 5 μg/ml instead of 0.1 μg/ml.
However, at 10 μg/ml the increase in apoptosis was evident at days 3 and 4. The increase in apoptosis was low, less than 10% at the high concentration.

herpes [4] = assay: In vitro herpes model; type: cell-based
SK-MES cells (lung) = assay: Apoptosis study (TdT assay) and cell growth; type: cell-based, human
Experimental: as §3, §4
The growth of SK-MES cells was slowed done by all concentrations of carbendazim past day 1.

[5] = tested on: HIV-1 in U1 cells (promonocytic, from U937); assay: Additional chronic HIV studies, monocytes; type: cell-based; conditions: concentration not given
Experimental: (§5) Chronic HIV-1 infected cells U1 were derived from an acute HIV-1 infection of the promonocytic cell line, U937. The chronic HIV-1 infected cells, ACH-2 were derived from an acute HIV-1 infection of the T cell line, A3.01.
(§6) These cells were cultured in medium and the phorbol ester, PMA. PMA causes the cells (both U1 and ACH-2) to be activated and not divide but it also causes the U-1 cells to differentiate. […] Cell viability was measured when these cell lines were treated with the test compound.
(§7) Both cell lines constituitively produce a small amount of HIV-1. ACH-2 cell lines tend to produce more HIV-1 than U1 cells as shown by p24 ELISA. When either cell line is cultured in the presence of PMA there is an increase in the quantity of HIV-1 produced as measured by the p24 antigen ELISA.
(§8) In addition, the number of […] positive HIV mRNA expressing cells per microscopic field is measured. Comparisons can be made from these numbers since the same number of cells were adhered to the glass slides for each drug concentration 10×10^6 cells/ml).
(§9) These cells were treated with test samples. […] The positive control was interferon which suppressed HIV monocytes replication by 80%.

influenza [6] = assay: In vitro influenza model; type: cell-based
[7] = tested on: Human Tumor Colony Forming Units; assay: In Vitro Human Tumor Colony Forming Units Test; conditions: for tumors that had ≧50% survival / tumors tested, total line: all tumor types
[8] = tested on: HIV-1 in ACH-2 cells (T cell line A3.01); assay: Additional chronic HIV studies, T cells; type: cell-based; conditions: concentration not given
Experimental: as §5, §6, §7, §8, §9

Rhabdomysarcoma = Rhabdomysarcoma model, tumor weight; type: in vivo; conditions: 3000 (mg/kg) group, once weekly p.o.
Text: as §1, §2
In the Rhabdomysarcoma model, a childhood cancer, at day 29 carbendazim at doses of 3000, 4000 and 5000 (mg/kg given once weekly, p.o.) is quite effective against this tumor with no toxicity in the 3000 (mg/kg) group. Topotecan (i.p., qd×5) is quite active against this model.

## COC(=O)Nc1nc2ccccc2[nH]1 [carbendazim, 2-methoxycarbonylamino-benzimidazole]
Influenza [1]
  activity: not active
HIV
  therapeutic index (TI), ratio of toxic dose to efficacious dose: 1.8
HIV; Human immunodeficiency virus 1, read-out: inhibition of viral replication
  inhibition at 4 µg/mL: 100%
MV522; 2000 mg/kg twice weekly p.o., c1-c3 = day 59, 63, 66, 2000 mg/kg, day 59
  tumor weight: 214.9 mg
MV522; 2000 mg/kg twice weekly p.o., c1-c3 = day 59, 63, 66, 2000 mg/kg, day 63
  tumor weight: 193.7 mg
MV522; 2000 mg/kg twice weekly p.o., c1-c3 = day 59, 63, 66, 2000 mg/kg, day 66
  tumor weight: 188.9 mg
MV522; 3000 mg/kg twice weekly p.o., c1-c3 = day 59, 63, 66, 3000 mg/kg, day 59
  tumor weight: 75.4 mg
MV522; 3000 mg/kg twice weekly p.o., c1-c3 = day 59, 63, 66, 3000 mg/kg, day 63
  tumor weight: 77 mg
MV522; 3000 mg/kg twice weekly p.o., c1-c3 = day 59, 63, 66, 3000 mg/kg, day 66
  tumor weight: 94.5 mg
Oral LD50
  LD50: 11000 mg/kg
Herpes [2]
  activity: no activity
[3]; 10 μg/ml (high concentration), days 3 and 4
  increase in apoptosis: below 10%
[3]; below 10 μg/ml
  cell growth: not significantly affected
Herpes [4]
  activity: no activity
SK-MES cells (lung); all concentrations, past day 1
  cell growth: slowed done
SK-MES cells (lung); days 1-4 microscopic TdT assay, days 3 and 4 flow cytometry
  percent of apoptosis: concentration-response effect
[5]
  suppression of replication in the HIV monocytes: 9%
Influenza [6]
  activity: no activity
[7]; 1 Hour Exposure, 0.5 μg/ml
  positive results / tumors tested: 0/1
[7]; 1 Hour Exposure, 5.0 μg/ml
  positive results / tumors tested: 0/1
[7]; 1 Hour Exposure, 50.0 μg/ml
  positive results / tumors tested: 0/1
[7]; Brain, 2nd '1 Hour Exposure' group, c4-c7 = 0.5, 5.0, 10, 50 μg/ml
  tumors that had ≧50% survival / tumors tested: 0/2 and 2/2
[7]; Breast, 1 Hour Exposure, c1-c3 = 0.5, 5.0, 50 μg/ml
  tumors that had ≧50% survival / tumors tested: 0/1
[7]; Breast, 2nd '1 Hour Exposure' group, c4-c7 = 0.5, 5.0, 10, 50 μg/ml
  tumors that had ≧50% survival / tumors tested: 0/3 and 0/4 and 0/1 and 2/3
[7]; Cervix, 2nd '1 Hour Exposure' group, c4-c7 = 0.5, 5.0, 10, 50 μg/ml
  tumors that had ≧50% survival / tumors tested: 0/1 and 1/1
[7]; Colon, 1 Hour Exposure, c1-c3 = 0.5, 5.0, 50 μg/ml
  tumors that had ≧50% survival / tumors tested: 0/1
[7]; Colon, 2nd '1 Hour Exposure' group, c4-c7 = 0.5, 5.0, 10, 50 μg/ml
  tumors that had ≧50% survival / tumors tested: 0/5 and 1/5 and 2/5
[7]; Continuous Exposure, 0.5 μg/ml
  positive results / tumors tested: 0/14
[7]; Continuous Exposure, 5.0 μg/ml
  positive results / tumors tested: 3/14
[7]; Continuous Exposure, 50.0 μg/ml
  positive results / tumors tested: 5/14
[7]; Head & Neck, 1 Hour Exposure, c1-c3 = 0.5, 5.0, 50 μg/ml
  tumors that had ≧50% survival / tumors tested: 0/1
[7]; Head & Neck, 2nd '1 Hour Exposure' group, c4-c7 = 0.5, 5.0, 10, 50 μg/ml
  tumors that had ≧50% survival / tumors tested: 0/1 and 1/1
[7]; Kidney, 1 Hour Exposure, c1-c3 = 0.5, 5.0, 50 μg/ml
  tumors that had ≧50% survival / tumors tested: 0/1
[7]; Kidney, 2nd '1 Hour Exposure' group, c4-c7 = 0.5, 5.0, 10, 50 μg/ml
  tumors that had ≧50% survival / tumors tested: 0/2 and 1/2
[7]; Lung, non-small cell, 1 Hour Exposure, c1-c3 = 0.5, 5.0, 50 μg/ml
  tumors that had ≧50% survival / tumors tested: 0/1
[7]; Lung, non-small cell, 2nd '1 Hour Exposure' group, c4-c7 = 0.5, 5.0, 10, 50 μg/ml
  tumors that had ≧50% survival / tumors tested: 0/6 and 2/6 and 0/1 and 2/5
[7]; Melanoma, 1 Hour Exposure, c1-c3 = 0.5, 5.0, 50 μg/ml
  tumors that had ≧50% survival / tumors tested: 0/2 and 1/2
[7]; Melanoma, 2nd '1 Hour Exposure' group, c4-c7 = 0.5, 5.0, 10, 50 μg/ml
  tumors that had ≧50% survival / tumors tested: 0/3 and 1/3 and 2/3
[7]; Mesothelioma, 2nd '1 Hour Exposure' group, c4-c7 = 0.5, 5.0, 10, 50 μg/ml
  tumors that had ≧50% survival / tumors tested: 0/1
[7]; Ovary, 1 Hour Exposure, c1-c3 = 0.5, 5.0, 50 μg/ml
  tumors that had ≧50% survival / tumors tested: 0/3
[7]; Ovary, 2nd '1 Hour Exposure' group, c4-c7 = 0.5, 5.0, 10, 50 μg/ml
  tumors that had ≧50% survival / tumors tested: 0/1 and 2/13 and 10/13
[7]; Sarcoma, 1 Hour Exposure, c1-c3 = 0.5, 5.0, 50 μg/ml
  tumors that had ≧50% survival / tumors tested: 0/1 and 1/1
[7]; Sarcoma, 2nd '1 Hour Exposure' group, c4-c7 = 0.5, 5.0, 10, 50 μg/ml
  tumors that had ≧50% survival / tumors tested: 0/1 and 1/1
[7]; Stomach, 2nd '1 Hour Exposure' group, c4-c7 = 0.5, 5.0, 10, 50 μg/ml
  tumors that had ≧50% survival / tumors tested: 0/1 and 1/1
[7]; Unknown Primary, 2nd '1 Hour Exposure' group, c4-c7 = 0.5, 5.0, 10, 50 μg/ml
  tumors that had ≧50% survival / tumors tested: 0/1
[7]; Uterus, 2nd '1 Hour Exposure' group, c4-c7 = 0.5, 5.0, 10, 50 μg/ml
  tumors that had ≧50% survival / tumors tested: 0/3 and 2/3
[7]; 1 Hour Exposure, c1-c3 = 0.5, 5.0, 50 μg/ml
  tumors that had ≧50% survival / tumors tested, total line: 0/11 and 2/11
[7]; 2nd '1 Hour Exposure' group, c4-c7 = 0.5, 5.0, 10, 50 μg/ml
  tumors that had ≧50% survival / tumors tested, total line: 0/4 and 6/44 and 0/3 and 27/41
[8]
  increase of T-cell HIV replication: 44%
Rhabdomysarcoma
  toxicity: no toxicity
